According to US20130150430A1, “Methods for Impairing the P53/HDM2 Auto-Regulatory Loop in Multiple Myeloma Development Using mIR-192, mIR-194 and mIR-215” (THE OHIO STATE UNIVERSITY, priority 2011, published 2013):

How the values were obtained:
Assay type in all cases: cell-based, human
HDM2 3′UTR = test: Luciferase reporter assay, pGL3-MDM2-3'UTR; conditions: MM1s cells, construct containing all MREs
Method: FIG. 4G: miRNAs predicted to interact with HDM2 gene in several consensus binding sites (x) at its 3′-UTR, according to “in silico” RNA-22 prediction software. Luciferase assay showing decreased luciferase activity in cells co-transfected with pGL3-MDM2-3′UTR and miR-192, miR-194, miR-215 and Scr sequence. See also FIG. 18. All experiments were performed in triplicate ±SD.
To verify that HDM2 is a direct target of miR-192, miR-194 and miR-215, HDM2 3′UTR containing all MREs (˜4K), was cloned into pGL3 basic construct downstream of the luciferase open reading frame (FIG. 4D). This reporter construct was used to transfect the highly transfectable MM1s cells that express the endogenous miRs following up-modulated p53 expression.
MM1s cells were cotransfected with 1 μg of pGL3 firefly luciferase reporter vector, 0.1 μg of the phRL-SV40 control vector (Promega), and 100 nM miRNA precursors (Ambion) using nucleoporation (LONZA) Cell Line Nucleofector Kit V. Firefly and Renilla luciferase activities were measured consecutively by using the Dual Luciferase Assay (Promega) 24 hr after transfection. Each reporter plasmid was transfected at least twice (on different days) and each sample was assayed in triplicate. […]

KMS-28BM cells = test: Cell cycle analysis by flow cytometry (sub-G1); conditions: 48 hr after transfection; Scr control ~3%
Method: FIG. 3G, FIG. 3H, FIG. 31, FIG. 3J: Flow cytometry analysis in MM1s (FIG. 3G), NCI-H929 (FIG. 3H) and KMS28BM (FIG. 31) cells (miR-192, miR-194, miR-215 and Scr transfected) at 48 hr of transfection, after first being arrested and synchronized in G2/M phase by Nocodazole for 16 hr. Apoptosis in KMS28BM was evaluated by caspase-3 activity (FIG. 3J). All experiments were performed in triplicate ±SD.
Nocodazole was (Sigma-Aldrich) was dissolved in DMSO as a stock solution of 10 mg/ml for cell cycle arrest in G2/M phase. Cells were first arrested and synchronized in G2/M phase by growth in 80 nM nocodazole for 16 hr. Cells were then washed and fresh medium added. After 6 hr, cell cycle analysis was performed by propidium iodide staining. Corresponding amounts of DMSO alone were added in control experiments. […] For DNA content analysis, cells were fixed in methanol at −20° C., washed again, rehydrated, re-suspended in PBS containing 50 μg/ml propidium iodide (PI) and 50 μg/ml RNase A, and analyzed by flow cytometry (Becton Dickinson). […] After the treatment the cells were analyzed using Caspase-Glo 3 Assay kit (Promega) according to the manufacturer's instructions. Continuous variables were expressed as mean values ± standard deviation (s.d.).

[1] = test system: RPMI-8226 cells expressing mutant TP53; test: MTS cell viability assay after miRNA transfection; conditions: transfected RPMI-8226 cells
Text: (§1) FIG. 3A, FIG. 3B, FIG. 3C, FIG. 3D: MTS assay performed in MM1s (FIG. 3A), NCI-929 (FIG. 3B), KMS28BM (FIG. 3C) and RPMI-8226 (FIG. 3D) cell lines. Cells were transfected with miR-192, miR-215 and scrambled sequence (Scr) and were harvested at 24, 48, and 72 hrs after transfection. P values are indicated.
(§2) CD-138+ PCs obtained from new diagnosed MM subjects and isolated as previously described were transfected by using nucleoporation (LONZA) Cell Line Nucleofector Kit V (Cat#VCA-1003). MM1s, NCI-H929 cell lines were transfected by using nucleoporation (LONZA) Cell Line Nucleofector Kit V (Cat#VCA-1003). Instead for U266, KMS-28BM and RPMI-8226 Cell Line Nucleofector Kit C (Cat#VCA-1004) was used. Specifically for primary cells 1×10^6 CD-138+ PCs were resuspended in […] of V solution and 100 nM miRNA precursors (Ambion) was used for the transfection reaction. For MM cell lines 5×10^6 cells were re-suspended in 100 μl of nucleofector solution V/C and 100 nM of miRNAs precursor or 100 nM LNA miRNA antisense oligonucleotides (Ambion) was used for each transfection point. Protein lysates and total RNA were collected at the time indicated. miRNA processing and expression were verified by northern blot and stem-loop qRT-PCR.
(§3) Cells were plated in 96-well plates in triplicate and incubated at 37° C. in a 5% CO2 incubator. Cell viability was examined with 3-(4,5-dimethylthiazol-2-yl)-2,5-dipheniltetrazolium bromide (MTT)-Cell Titer 96AQueous One Solution Cell Proliferation Assay (Promega), according to the manufacturer's protocol. Metabolically active cells were detected by adding 20 μl of MTT to each well. After 1 hr incubation, the plates were analyzed in a Multi label Counter (Bio-Rad Laboratories). Apoptosis was assessed using Annexin V-FITC apoptosis detection kits followed by flow cytometric analysis. For Annexin V staining, MM cells (pre-miRNAs pool or Scrambled transfected) were treated with MI-219 at different concentrations (0, 2.5, 5.0, 10 μM) for 24 hr and then treated as for DNA content analysis, except that fixation was omitted and the Cells (5×10^5 per sample) were resuspended in PBS containing 25 μg/ml Annexin-V-FLUOS (Roche Applied Science) and 50 μg/ml PI prior to FACS analysis. The percentage of apoptosis indicated was corrected for background levels found in the corresponding untreated controls. The percentage of apoptotic cells was expressed as the mean±SD of three experiments.

[2] = test system: MM cells carrying WT TP53 (MM1s, NCI-H929, KMS28BM); test: MTS cell viability assay after miRNA transfection; conditions: transfected cells vs scrambled sequences, 24, 48, 72 hrs after transfection
Text: as §1, §2, §3

| Substance | luciferase expression of HDM2 3′UTR reporter (HDM2 3′UTR) | sub-G1 fraction (indicative of cell death) (KMS-28BM cells) [%] | growth arrest (MTS assay) [1] | growth arrest (MTS assay) [2] |
| --- | --- | --- | --- | --- |
| miR-215: microRNA, p53-activated, down-regulated in MM; transfected as miRNA precursor (Ambion) or lentivector; SEQ ID NO:58 (AUGACCUAUGAAUUGACAGAC; listed as RNA, chemistry not given here; listed as Homo sapiens) | significantly diminished | 30 | did not detect this effect | significant growth arrest |
| miR-192: microRNA, p53-activated, down-regulated in MM; transfected as miRNA precursor (Ambion) or lentivector; SEQ ID NO:56 (CUGACCUAUGAAUUGACAGCC; listed as RNA, chemistry not given here; listed as Homo sapiens) | significantly diminished | ~25 | did not detect this effect | significant growth arrest |
